Results: US4650855A, “Glycopeptide antibiotic L 17046” (Gruppo Lepetit S.p.A., priority 1983, dated 1987)
Converted amounts (≈) assume the structure as drawn.

Experiments:
[1] = tested on: mice; experiment: Approximate acute toxicity in mice; assay type: in vivo; conditions: acute toxicity (i.p.), administered by i.m. route as printed
[2] = tested on: Staplylococcus aureus Tour; experiment: In vitro antibacterial activity, two-fold dilution method in microtiter system (MIC); assay type: cell-based, Staphylococcus aureus
Protocol: (§1) Isosensitest broth (Oxoid) and Todd-Hewitt broth (Difco) were used for Staphylococci and Streptococci, respectively. Broth cultures were diluted so that the final inoculum was about 10^4 colony forming units/ml (CFU/ml).

[3] = tested on: Streptococcus pyogenes C 203; experiment: as above; assay type: cell-based; conditions: Todd-Hewitt broth, inoculum about 10^4 CFU/ml, 18-24 h at 37° C.
Protocol: as §1

[4] = tested on: Streptococcus dysgalactiae ATCC 9926; experiment: as above; assay type: cell-based; conditions: Todd-Hewitt broth, inoculum about 10^4 CFU/ml, 18-24 h at 37° C.
Protocol: as §1

[5] = tested on: Staphylococcus aureus ATCC 6538; experiment: as above; assay type: cell-based; conditions: Isosensitest broth, inoculum about 10^4 CFU/ml, 18-24 h at 37° C.
Protocol: as §1

[6] = tested on: Streptococcus pneumoniae UC 41; experiment: as above; assay type: cell-based; conditions: Todd-Hewitt broth, inoculum about 10^4 CFU/ml, 18-24 h at 37° C.
Protocol: as §1

[7] = tested on: Streptococcus faecalis ATCC 7080; experiment: as above; assay type: cell-based; conditions: Todd-Hewitt broth, inoculum about 10^4 CFU/ml, 18-24 h at 37° C.
Protocol: as §1

[8] = tested on: Staphylococcus epidermidis ATCC 12228; experiment: as above; assay type: cell-based; conditions: Isosensitest broth, inoculum about 10^4 CFU/ml, 18-24 h at 37° C.
Protocol: as §1

[9] = Potentiometric titration profile; assay type: physicochemical; conditions: methylcellosolve:water 4:1, titration with 0.01 N NaOH after excess 0.01 N HCl
[10] = tested on: gram-positive bacteria; experiment: In vitro antibacterial activity, spectrum; assay type: cell-based
Protocol: as §1

[11] = Solubility; assay type: physicochemical
[12] = tested on: coagulase-negative staphylocci (S. epidermidis, S. saprophyticus); experiment: Effectiveness against coagulase-negative staphylococci; assay type: cell-based
Excerpt: (§2) Its MICs […] against some clinical isolates of the above microbial strains are listed below in Table II: […]

[13] = tested on: S. epidermidis L 835; experiment: MIC against clinical isolates of coagulase-negative staphylococci; assay type: cell-based; conditions: clinical isolate, methicillin-resistant strain
Protocol: as §1, §2

[14] = tested on: S. epidermidis L 1142; experiment: as above; assay type: cell-based; conditions: clinical isolate, methicillin-resistant strain
Protocol: as §1, §2

[15] = tested on: S. saprophyticus L 1141; experiment: as above; assay type: cell-based; conditions: clinical isolate
Protocol: as §1, §2

[16] = tested on: S. epidermidis L 1378; experiment: as above; assay type: cell-based; conditions: clinical isolate
Protocol: as §1, §2

[17] = tested on: S. epidermidis L 785; experiment: as above; assay type: cell-based; conditions: clinical isolate, methicillin-resistant strain
Protocol: as §1, §2

CC(=O)N[C@@H]1[C@@H](O[C@H]2c3ccc(c(Cl)c3)Oc3cc4cc(c3O)Oc3ccc(cc3Cl)C[C@@H]3NC(=O)[C@@H](N)c5ccc(O)c(c5)Oc5cc(O)cc(c5)[C@@H](NC3=O)C(=O)N[C@@H]4C(=O)N[C@@H]3C(=O)N[C@H]2C(=O)N[C@@H](C(=O)O)c2cc(O)cc(O)c2-c2cc3ccc2O)O[C@@H](CO)[C@H](O)[C@H]1O (stereo in doubt) [antibiotic L 17046]
approximate LD50 [1]: about 850 mg/kg
MIC ([2]; Isosensitest broth + 30% bovine serum): 0.4 µg/mL
MIC ([2]; Isosensitest broth, inoculum about 10^4 CFU/ml, 18-24 h at 37° C.): 0.2 µg/mL (≈ 0.143 µM)
MIC [3]: 1.6 µg/mL (≈ 1.14 µM)
MIC [4]: 0.8 µg/mL (≈ 0.571 µM)
MIC [5]: 0.2 µg/mL (≈ 0.143 µM)
MIC [6]: 1.6 µg/mL (≈ 1.14 µM)
MIC [7]: 1.6 µg/mL (≈ 1.14 µM)
MIC [8]: 0.05 µg/mL (≈ 0.0357 µM)
pH1/2 value, third titration slope ([9]; five equivalents): 11
pH1/2 value, first titration slope ([9]; one equivalent): 5.0
pH1/2 value, second titration slope ([9]; one equivalent): 7.0
in vitro antibacterial activity (spectrum) [10]: mainly active against gram-positive bacteria
solubility ([11]; in highly concentrated mineral acids): insoluble
solubility ([11]; in methanol): sligltly soluble
solubility ([11]; in water at pH>8.0, dimethylformamide, dimethylsulfoxide, propyleneglycol and methylcellosolve): freely soluble
effectiveness against coagulase-negative staphylococci [12]: particularly effective
MIC [13]: 0.1 µg/mL (≈ 0.0713 µM)
MIC [14]: 0.1 µg/mL (≈ 0.0713 µM)
MIC [15]: 0.1 µg/mL (≈ 0.0713 µM)
MIC [16]: 0.05 µg/mL (≈ 0.0357 µM)
MIC [17]: 0.05 µg/mL (≈ 0.0357 µM)
